From patent US20190345138A1, “HETEROCYCLIC AMIDES AS KINASE INHIBITORS” (GlaxoSmithKline Intellectual Property Development Limited, priority 2016, published 2019) come the findings set out here.

Several values for one entry are separate records, joined by “and”; a condition that tells them apart may be missing. Equal entries are not always repeated.

One test deals with T1, RIP1 kinase (Homo sapiens, UniProt Q13546).
T1 sequence (Q13546 1-375 limits assumed): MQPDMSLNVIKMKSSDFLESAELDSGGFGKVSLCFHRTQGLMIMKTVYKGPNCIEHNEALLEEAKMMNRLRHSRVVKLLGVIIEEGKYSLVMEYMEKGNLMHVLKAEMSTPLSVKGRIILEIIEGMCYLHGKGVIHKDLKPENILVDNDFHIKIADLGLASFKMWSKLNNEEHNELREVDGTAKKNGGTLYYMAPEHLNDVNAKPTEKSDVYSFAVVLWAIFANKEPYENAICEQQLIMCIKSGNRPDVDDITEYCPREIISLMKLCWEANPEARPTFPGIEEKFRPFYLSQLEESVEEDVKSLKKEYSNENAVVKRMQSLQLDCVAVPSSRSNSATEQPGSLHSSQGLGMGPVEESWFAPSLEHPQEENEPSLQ
The experiment in a line: fluorescent polarization based binding assay. Particulars: mean of a minimum of 2 experiments. An excerpt:
A fluorescent polarization based binding assay was used to assess the activity of the compounds of this invention, the details of which are disclosed in International Patent Appln. No. PCT/IB2014/059004, now, International Patent Appln. Pub.

For test [1], the system named is human monocytic leukemia U937 cells. The experiment in a line: necroptosis assay in U937 cells. The class given is cell-based. Particulars: Homo sapiens, U-937, U937 cells; viability by cellular ATP (Cell Titer-Glo); read-out: pIC50, inhibited necrosis in U937 cells (converted). Put shortly: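 Necroptosis was induced in human U937 or mouse L929 cells, and viability was quantified as cellular ATP with Cell Titer-Glo. Data are means±standard deviation.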

As for `CSc1nc(N)cc(N2CCC(C(=O)N3N=CC[C@H]3c3ccccc3)CC2)n1` [Example 60, (S)-(1-(6-amino-2-(methylthio)pyrimidin-4-yl)piperidin-4-yl)(5-phenyl-4,5-dihydro-1H-pyrazol-1-yl)methanone], the figures for the IC50 (at RIP1 kinase; in test [1]) were 1 to 31.6 nM and 1 to 100 nM, respectively.
With `Nc1ncnc(N2CCC(C(=O)N3N=CC[C@H]3c3ccccc3)CC2)c1F` [Example 61, (S)-(1-(6-amino-5-fluoropyrimidin-4-yl)piperidin-4-yl)(5-phenyl-4,5-dihydro-1H-pyrazol-1-yl)methanone], the IC50 on RIP1 kinase was 1 to 31.6 nM and 1 to 10 nM; in test [1] it was 1 to 100 nM.
Turning to `CC(=O)Nc1cncc(N2CCC(C(=O)N3N=CC[C@H]3c3ccccc3)CC2)n1` [Example 64, (S)-N-(6-(4-(5-phenyl-4,5-dihydro-1H-pyrazole-1-carbonyl)piperidin-1-yl)pyrazin-2-yl)acetamide], the IC50 was 1 to 31.6 nM and 1 to 10 nM on RIP1 kinase; 1 to 100 nM in test [1].
With `O=C(C1CCN(c2ncc(-c3ccccc3)o2)CC1)N1N=CC[C@H]1c1ccccc1` [Example 67, (S)-(5-phenyl-4,5-dihydro-1H-pyrazol-1-yl)(1-(5-phenyloxazol-2-yl)piperidin-4-yl)methanone], the IC50 was 1 to 31.6 nM at RIP1 kinase and 1 to 100 nM in test [1].
For `N#Cc1cccc([C@@H]2CC=NN2C(=O)C2CCN(c3cc(C#N)ncn3)CC2)c1` [Example 68, (S)-6-(4-(5-(3-cyanophenyl)-4,5-dihydro-1H-pyrazole-1-carbonyl)piperidin-1-yl)pyrimidine-4-carbonitrile], the IC50 at RIP1 kinase is 1 to 31.6 nM; in test [1], 1 to 100 nM.
For `COc1ccnc(N2CCC(C(=O)N3N=CC[C@H]3c3cccc(C#N)c3)CC2)n1` [Example 69, (S)-3-(1-(1-(4-methoxypyrimidin-2-yl)piperidine-4-carbonyl)-4,5-dihydro-1H-pyrazol-5-yl)benzonitrile], the IC50 is 1 to 31.6 nM and 1 to 10 nM on RIP1 kinase; 1 to 100 nM in test [1].
Consider `N#Cc1cccc([C@@H]2CC=NN2C(=O)C2CCN(c3cc(C(N)=O)ncn3)CC2)c1` [Example 70, (S)-6-(4-(5-(3-cyanophenyl)-4,5-dihydro-1H-pyrazole-1-carbonyl)piperidin-1-yl)pyrimidine-4-carboxamide], for which the IC50 was 1 to 31.6 nM at RIP1 kinase and 1 to 100 nM in test [1].
The matching figures for `N#Cc1cccc([C@@H]2CC=NN2C(=O)C2CCN(c3ncc(F)c(N)n3)CC2)c1` [Example 72, (S)-3-(1-(1-(4-amino-5-fluoropyrimidin-2-yl)piperidine-4-carbonyl)-4,5-dihydro-1H-pyrazol-5-yl)benzonitrile]: 1 to 31.6 nM and 1 to 100 nM.
In the same order, the values of `N#Cc1cccc([C@@H]2CC=NN2C(=O)C2CCN(c3ccc4nccn4n3)CC2)c1` [Example 73, (S)-3-(1-(1-(imidazo[1,2-b]pyridazin-6-yl)piperidine-4-carbonyl)-4,5-dihydro-1H-pyrazol-5-yl)benzonitrile] are 1 to 31.6 nM and 1 to 100 nM.
For `N#Cc1cccc([C@@H]2CC=NN2C(=O)C2CCN(c3ccnc(C#N)n3)CC2)c1` [Example 74, (S)-4-(4-(5-(3-cyanophenyl)-4,5-dihydro-1H-pyrazole-1-carbonyl)piperidin-1-yl)pyrimidine-2-carbonitrile], the IC50 is 1 to 31.6 nM on RIP1 kinase and 1 to 100 nM in test [1].
Turning to `N#Cc1cccc([C@@H]2CC=NN2C(=O)C2CCN(c3ncc4cn[nH]c4n3)CC2)c1` [Example 76, (S)-3-(1-(1-(1H-pyrazolo[3,4-d]pyrimidin-6-yl)piperidine-4-carbonyl)-4,5-dihydro-1H-pyrazol-5-yl)benzonitrile], the IC50 on RIP1 kinase was 1 to 31.6 nM; in test [1], 1 to 100 nM.
For `COc1ccnc(N2CCC(C(=O)N3N=CC[C@H]3c3cc(F)cc(F)c3)CC2)n1` [Example 79, (S)-(5-(3,5-difluorophenyl)-4,5-dihydro-1H-pyrazol-1-yl)(1-(4-methoxypyrimidin-2-yl)piperidin-4-yl)methanone], the IC50 at RIP1 kinase was 1 to 31.6 nM and 1 to 10 nM; in test [1], 1 to 100 nM.
Turning to `O=C1Cc2cnc(N3CCC(C(=O)N4N=CC[C@H]4c4cc(F)cc(F)c4)CC3)nc2N1` [Example 80, (S)-2-(4-(5-(3,5-difluorophenyl)-4,5-dihydro-1H-pyrazole-1-carbonyl)piperidin-1-yl)-5H-pyrrolo[2,3-d]pyrimidin-6(7H)-one], the IC50 at RIP1 kinase is 1 to 31.6 nM and 1 to 10 nM; in test [1], 1 to 100 nM.
Turning to `CSc1nccc(N2CCC(C(=O)N3N=CC[C@H]3c3cc(F)cc(F)c3)CC2)n1` [Example 82, (S)-(5-(3,5-difluorophenyl)-4,5-dihydro-1H-pyrazol-1-yl)(1-(2-(methylthio)pyrimidin-4-yl)piperidin-4-yl)methanone], the IC50 at RIP1 kinase was 1 to 31.6 nM and 1 to 10 nM; in test [1], 1 to 100 nM.
As to `Nc1nccc(N2CCC(C(=O)N3N=CC[C@H]3c3cc(F)cc(F)c3)CC2)n1` [Example 84, (S)-(1-(2-aminopyrimidin-4-yl)piperidin-4-yl)(5-(3,5-difluorophenyl)-4,5-dihydro-1H-pyrazol-1-yl)methanone], the IC50 on RIP1 kinase was 1 to 31.6 nM; in test [1], 1 to 100 nM.
On to `O=C(C1CCN(c2ccc3nccn3n2)CC1)N1N=CC[C@H]1c1cc(F)cc(F)c1` [Example 87, (S)-(5-(3,5-difluorophenyl)-4,5-dihydro-1H-pyrazol-1-yl)(1-(imidazo[1,2-b]pyridazin-6-yl)piperidin-4-yl)methanone], for which the IC50 at RIP1 kinase is 1 to 31.6 nM and 1 to 10 nM; in test [1] it was 1 to 100 nM.
Turning to `N#Cc1cncnc1N1CCC(C(=O)N2N=CC[C@H]2c2cc(F)cc(F)c2)CC1` [Example 88, (S)-4-(4-(5-(3,5-difluorophenyl)-4,5-dihydro-1H-pyrazole-1-carbonyl)piperidin-1-yl)pyrimidine-5-carbonitrile], the IC50 at RIP1 kinase was 1 to 31.6 nM; in test [1], 1 to 100 nM.
Take `COc1cc(N2CCC(C(=O)N3N=CC[C@H]3c3cc(F)cc(F)c3)CC2)ncn1` [Example 91, (S)-(5-(3,5-difluorophenyl)-4,5-dihydro-1H-pyrazol-1-yl)(1-(6-methoxypyrimidin-4-yl)piperidin-4-yl)methanone]: the IC50 was 1 to 31.6 nM and 1 to 10 nM at RIP1 kinase; 1 to 100 nM in test [1].
As to `N#Cc1cnc(N2CCC(C(=O)N3N=CC[C@H]3c3cc(F)cc(F)c3)CC2)nc1` [Example 92, (S)-2-(4-(5-(3,5-difluorophenyl)-4,5-dihydro-1H-pyrazole-1-carbonyl)piperidin-1-yl)pyrimidine-5-carbonitrile], the IC50 at RIP1 kinase was 1 to 31.6 nM and 1 to 10 nM; in test [1] it was 1 to 100 nM.
As to `Nc1ccnc(N2CCC(C(=O)N3N=CC[C@H]3c3cc(F)cc(F)c3)CC2)n1` [Example 93, (S)-(1-(4-aminopyrimidin-2-yl)piperidin-4-yl)(5-(3,5-difluorophenyl)-4,5-dihydro-1H-pyrazol-1-yl)methanone], the IC50 on RIP1 kinase is 1 to 31.6 nM; in test [1], 1 to 100 nM.
As for `NC(=O)c1cnc(N2CCC(C(=O)N3N=CC[C@H]3c3cc(F)cc(F)c3)CC2)nc1` [Example 96, (S)-2-(4-(5-(3,5-difluorophenyl)-4,5-dihydro-1H-pyrazole-1-carbonyl)piperidin-1-yl)pyrimidine-5-carboxamide], the IC50 is 1 to 31.6 nM at RIP1 kinase and 1 to 100 nM in test [1].
`O=C(C1CCN(c2nccc(=O)[nH]2)CC1)N1N=CC[C@H]1c1cc(F)cc(F)c1` [Example 97, (S)-2-(4-(5-(3,5-difluorophenyl)-4,5-dihydro-1H-pyrazole-1-carbonyl)piperidin-1-yl)pyrimidin-4(3H)-one]: the values for the IC50 (at RIP1 kinase; in test [1]) were 1 to 31.6 nM and 1 to 100 nM, respectively.
Regarding `Nc1cc(N2CCC(C(=O)N3N=CC[C@H]3c3cc(F)cc(F)c3)CC2)ncn1` [Example 98, (S)-(1-(6-aminopyrimidin-4-yl)piperidin-4-yl)(5-(3,5-difluorophenyl)-4,5-dihydro-1H-pyrazol-1-yl)methanone], the IC50 at RIP1 kinase was 1 to 31.6 nM and 1 to 10 nM; in test [1] it was 1 to 100 nM.
For the compound `COc1nccc(N2CCC(C(=O)N3N=CC[C@H]3c3cc(F)cc(F)c3)CC2)n1` [Example 99, (S)-(5-(3,5-difluorophenyl)-4,5-dihydro-1H-pyrazol-1-yl)(1-(2-methoxypyrimidin-4-yl)piperidin-4-yl)methanone], the IC50 is 1 to 31.6 nM and 1 to 10 nM at RIP1 kinase; 1 to 100 nM in test [1].
Take `CNc1nccc(N2CCC(C(=O)N3N=CC[C@H]3c3cc(F)cc(F)c3)CC2)n1` [Example 100, (S)-(5-(3,5-difluorophenyl)-4,5-dihydro-1H-pyrazol-1-yl)(1-(2-(methylamino)pyrimidin-4-yl)piperidin-4-yl)methanone]: the IC50 at RIP1 kinase is 1 to 31.6 nM; in test [1], 1 to 100 nM.
For `COc1cnc(N2CCC(C(=O)N3N=CC[C@H]3c3cc(F)ccc3F)CC2)nc1` [Example 101, (S)-(5-(2,5-difluorophenyl)-4,5-dihydro-1H-pyrazol-1-yl)(1-(5-methoxypyrimidin-2-yl)piperidin-4-yl)methanone], the IC50 is 1 to 31.6 nM and 1 to 10 nM at RIP1 kinase; 1 to 100 nM in test [1].
With `N#Cc1cnc(N2CCC(C(=O)N3N=CC[C@H]3c3cc(F)ccc3F)CC2)cn1` [Example 103, (S)-5-(4-(5-(2,5-difluorophenyl)-4,5-dihydro-1H-pyrazole-1-carbonyl)piperidin-1-yl)pyrazine-2-carbonitrile], the IC50 on RIP1 kinase was 1 to 31.6 nM and 1 to 10 nM; in test [1], 1 to 100 nM.
